Results as given in US20160122342A1, “ENHANCER OF ZESTE HOMOLOG 2 INHIBITORS” (GLAXOSMITHKLINE INTELLECTUAL PROPERTY (NO.2) LIMITED, priority 2013, published 2016).
Like-named read-outs stand apart in the source and are kept apart here.

Settings: rcm bond, DCM

**Q.** For CCN(c1cccc2c1C/C=C\COc1cc(C)nc(OC)c1CNC2=O)C1CCOCC1, which ring closure, isolated yield (from C=CCOc1cc(C)nc(OC)c1CNC(=O)c1cccc(N(CC)C2CCOCC2)c1CC=C, 12-membered ring, Grubbs II (10+10 mol%, then 10 mg), 19.5 mM, 25.0 °C, 132.0 h) is on record?
**A.** 19%

**Q.** For CCN(c1cccc2c1CC=CCCc1cc(C)nc(OC)c1CNC2=O)[C@H]1CC[C@@H](NC(=O)OC(C)(C)C)CC1, which ring closure, isolated yield (from C=CCCc1cc(C)nc(OC)c1CNC(=O)c1cccc(N(CC)[C@H]2CC[C@@H](NC(=O)OC(C)(C)C)CC2)c1CC=C, 12-membered ring, Hoveyda-Grubbs II (2 x 20 mol%), 39.8 mM, 55.0 °C, 72.0 h) is on record?
**A.** 57.8%

**Q.** For CCN(c1cccc2c1CC=CCOCc1cc(C)nc(OC)c1CNC2=O)C1CCOCC1, which ring closure, isolated yield (from C=CCOCc1cc(C)nc(OC)c1CNC(=O)c1cccc(N(CC)C2CCOCC2)c1CC=C, 13-membered ring, Grubbs II (10 mol%), 20.0 mM, 25.0 °C, 22.0 h) is on record?
**A.** 54.7%
